In one data set the target is T1, Alzheimer's Aβ (1-40) (Homo sapiens, UniProt P05067).
T1 construct: aggregates to fibrils, Thioflavin T fluorometry
The experiment in a line: Thioflavin T fluorometry assay of Aβ (1-40) amyloid fibril formation over 1 week. The class given is biochemical. Particulars: 1 hour to 1 week, 25 μM Aβ (1-40). From the text:
A previously described method of measuring amyloid fibril formation utilizing Thioflavin T fluorometry (H Naiki et al, Lab. Invest. 65:104-110, 1991; H Levine III, Protein Sci. 2:404-410, 1993; H Levine III, Amyloid: Int. J. Exp. Clin. Invest. 2:1-6, 1995; H Naiki and K. Nakakuki, Lab. Invest. 74:374-383,1996) was employed initially to identify potential therapeutic compounds capable of inhibiting Alzheimer's Aβ amyloid fibril formation. Using this sensitive assay, any decreases or increases in fluorescence was previously shown to correlate with a decrease or increase in the amount of amyloid fibrils (H Naiki et al, Lab. Invest. 65:104-110, 1991; H Levine III, Protein Sci. 2:404-410, 1993; H Levine III, Amyloid: Int. J. Exp. Clin. Invest. 2:1-6, 1995; H Naiki and K. Nakakuki, Lab. Invest. 74:374-383, 1996), allowing one to determine the identification and extent of potential inhibitors and/or enhancers of amyloid fibril formation.
In one study, the effects of various compounds on Alzheimer's Aβ (1-40) fibril formation was assessed by Thioflavin T fluorometry. Thioflavin T is known to bind to fibrillar amyloid proteins, and an increase in fluorescence correlates with an increase in amyloid fibril formation, whereas a decrease in fluorescence correlates with a decrease in amyloid fibril formation. The Alzheimer's Aβ protein (1-40) when incubated at 37° C. tends to spontaneously form amyloid fibrils which increase in quantity over time. […]
To assess the effects of each compound on Aβ (1-40) fibril formation, 50 μl aliquots were taken from each tube for analysis at 1 hr, 1 day, 3 days, and 1 week. […] Fluorescence emission at 482 nm was measured on a Turner instrument-model 450 fluorometer at an excitation wavelength of 450 nm. For each determination,the fluorometer was calibrated by zeroing in the presence of the Thioflavin T reagent alone, and by setting the 50 ng/ml riboflavin (Sigma Chemical Co., St. Louis, Mo.) in the Thioflavin T reagent to 1800 fluorescence units. […]

For data set [1], the system named is Alzheimer's disease patients. Particulars: literature; cited from earlier work.
The test system of the next data set is Aβ (1-40). The experiment in a line: Solid phase binding assay of Aβ--Aβ interactions (amyloid fibril growth). Particulars: FIG. 3; 1.25 mM of test compounds. From the text: In Alzheimer's disease and other amyloidoses, amyloid fibril growth is believed to involve amyloid protein self-interactions (ie. Aβ--Aβ interactions). Any potential effective therapeutic agent for amyloid deposition, accumulation and/or persistence should also be capable of causing an inhibition of amyloid protein self-interactions. This is important for preventing any new amyloid fibril formation when treating Azheimer's disease patients at early stages of the disease. ELISA methodologies (i.e. solid phase binding assays) were therefore used to identify compounds which were capable of inhibiting Aβ--Aβ interactions (i.e. Alzheimer's amyloid fibril growth).
Aβ (1-40) was first labelled with biotin according to the following protocol. 1 mg of Aβ (1-40) (Bachem Inc., Torrance, Calif., USA; Lot #WL934) was dissolved in 200 μl of PBS (pH 8.0) and incubated for 1 week at 37° C. […] The amount of biotin incorporated was then determined using the HABA (2-(4'-hydroxyazo-benzene)benzoic acid) method (according to the manufacturer's protocol; Pierce).
2 μg of unlabelled Aβ in 40 μl of Tris-buffered saline containing 100 mM Tris-HCl, 50 mM NaCl, 3 mM NaN3, pH 7.0 (TBS) was allowed to bind overnight at 4° C. to microtiter wells (Nunc plates, Maxisorb). […] The reaction was stopped with 50 μl of 4N H2 SO4 and read on a Model 450 microplate reader (Biorad, Hercules, Calif., USA) at 490 nm. […]

Where [2] appears, read: Example 1, FIG. 1, 1.25 mM test compound (PTI-00700 at 1:227 dilution).

Structures can show the parent of a compound that is named as a salt.

T1 sequence (P05067 672-711): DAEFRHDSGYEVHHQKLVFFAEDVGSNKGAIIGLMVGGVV

Consider `N[C@H]1C(O)O[C@H](CO)[C@@H](O)[C@@H]1O` (some centres unmarked) [PTI-00712, glucosamine], for which, on Alzheimer's Aβ (1-40) (Example 2, FIG. 2, 1.25 mM test compound), the “effect on Aβ (1-40) amyloid fibril formation” value is reported as “no inhibitory effect”. Turning to `COc1cc2c(cc1OC)C(=O)C(CC1CCN(Cc3ccccc3)CC1)C2` (centres unmarked) [donepezil], the “cognitive improvement in Alzheimer's disease patients” value in data set [1] is on record as “slight cognitive improvement”. Turning to `Nc1c2c(nc3ccccc13)CCCC2` [Tacrine hydrochloride], in data set [1], the “cognitive improvement in Alzheimer's disease patients” value was “limited success” and the side effects entry is on record as “liver toxicity”.

Consider `N[C@H]1C(O)O[C@H](CO)[C@@H](O)[C@@H]1O` (some centres unmarked) [PTI-00800, glucosamine], for which the “effect on Aβ (1-40) amyloid fibril formation” value at Alzheimer's Aβ (1-40) (setting [2]) is reported as “did not significantly inhibit”. Besides, the “effect on amyloid fibril growth / Aβ--Aβ interactions” value in the data set on Aβ (1-40) is “no inhibitory effects”. In the same order, the values of `N[C@H]1C(O)O[C@H](CO)[C@@H](O)[C@@H]1O` (some centres unmarked) [PTI-00900, glucosamine] are “did not significantly inhibit” and “no inhibitory effects”.

Source of the values: US6264994A, “Compositions for treating alzheimer's disease and other amyloidoses” (priority 1998, dated 2001).
